Laboratory results taken from patent publication US4022962A, “Carbamylguanidine antimicrobial compounds” (Cooper Laboratories, Inc., priority 1975, dated 1977).
≈ marks a conversion by molar mass, not a printed value. Structures can show the parent of a compound that is named as a salt.

Assays:
S. Mutans = assay: quantitative serial dilution test, minimal inhibitory concentration; format: cell-based; settings: Streptococcus mutans, brain-heart infusion broth, half strength, 37° C., 36 hours
Procedure: A quantitative serial dilution test may also be performed by the following procedure.
A 20 mg/ml solution of the compound to be tested is prepared in a standard brain-heart infusion broth medium which has been diluted with water to one-half standard strength. Serial dilutions are prepared by adding 1 ml of the solution to a test tube containing 9 ml of medium. Five milliliters of the resulting solution are then added to another test tube containing 5 ml of the medium. The resulting solution is then again diluted by the same procedure. Ordinarily one tenfold dilution and four twofold dilutions are made. The procedure can be continued if more dilute solutions are required. Each of the series of tubes containing solutions of the compounds to be assayed is inoculated with two drops of a heavy culture of the chosen microorganisms in the brain-heart infusion broth. The tubes are incubated at 37° C. for 36 hours and the most dilute solution showing no microbial growth is noted. The concentration of this solution is reported as the minimal inhibitory concentration (MIC).
The minimum inhibitory concentration of a number of the compounds of this invention with respect to the microorganism S. Mutans were determined by the procedure described above. Chlorhexidine diacetate a commercially successful antimicrobial was used as a control.

mice = assay: acute oral toxicity in mice; format: in vivo; settings: 8 gms/Kg orally
Procedure: Acute oral toxicity of the compounds of this invention is determined in mice by the following procedure. The mice are fasted overnight, then formed into groups of 10 for testing. The animals in each group are fed a chosen dose and the dose is varied from group to group to cover a range of doses. The groups are then observed for a period of five days and the number of dead animals in each group is noted each day.

dental plaque = settings: cited from earlier work
[1] = when swallowed; cited from earlier work
[2] = in vivo; cited from earlier work
[3] = at the prevailing pH of the mouth; cited from earlier work
[4] = adsorption to extracted enamel tooth surfaces, spectrophotometric; parameters: species or system human; settings: after no more was removed; fresh portions of the solutions
Procedure: Absorption of the compounds of this invention to extracted, non-carious, unprepared enamel tooth surfaces was investigated by the following procedure. Extracted human teeth, having their roots coated with wax so that only the enamel crowns were exposed, were immersed in 10 ml portions of stirred aqueous solutions of the test compound having a concentration of 10 micrograms/milliliter. After 10 minutes, the teeth were removed and the amount of test compound removed from the solution by adsorption was determined spectrophotometrically. […] The adsorption of the compounds of this invention was compared with that of chlorhexidine and found to be substantially greater. […] After no more of the test compounds was removed from the solution by adsorption, the teeth were immersed in fresh portions of the solutions.

SMILES | MIC (S. Mutans) | also measured
N=C(NCCCCCCNC(=N)NC(=O)Nc1ccc(Br)cc1)NC(=O)Nc1ccc(Br)cc1 [1,6-bis(4-bromophenylcarbamylguanidino)hexane diacetate] | 0.312 µg/mL | –
N=C(NCCCCCCNC(=N)NC(=O)Nc1ccc(Cl)cc1)NC(=O)Nc1ccc(Cl)cc1 [1,6-Bis-(p-chlorophenylcarbamylguanidino)hexane] | – | acute oral toxicity (mice): essentially atoxic
N=C(NCCCCCCNC(=N)NC(=N)Nc1ccc(Cl)cc1)NC(=N)Nc1ccc(Cl)cc1 [chlorhexidine diacetate, reference compound] | 0.078 µg/mL | –
N=C(NCCCCCCNC(=N)NC(=O)Nc1ccc(F)cc1)NC(=O)Nc1ccc(F)cc1 [1,6-bis(4-fluorophenylcarbamylguanidino)hexane diacetate] | 0.156 µg/mL | –
N=C(NCCCCNC(=N)NC(=O)Nc1ccc(Cl)cc1)NC(=O)Nc1ccc(Cl)cc1 [1,4-bis(4-chlorophenylcarbamylguanidino)butane] | 0.625 µg/mL (≈ 1.3 µM) | –
N=C(NCCCCCCNC(=N)NC(=O)Nc1ccccc1)NC(=O)Nc1ccccc1 [1,6-bis(phenylcarbamylguanidino)hexane] | 0.625 µg/mL (≈ 1.43 µM) | –
N=C(NCCCCCNC(=N)NC(=O)Nc1ccc(Cl)cc1)NC(=O)Nc1ccc(Cl)cc1 [1,5-bis(4-chlorophenylcarbamylguanidino)pentane monoacetate] | 0.078 µg/mL | –
CCCCC(CC)CNC(=O)NC(=N)NCCCCCCNC(=N)NC(=O)NCC(CC)CCCC (centres unmarked) [1,6-bis(2-ethylhexylcarbamylguanidino)hexane] | 0.625 µg/mL (≈ 1.22 µM) | –
N=C(NCCCCCCNC(=N)NC(=O)Nc1cccc(Cl)c1)NC(=O)Nc1cccc(Cl)c1 [1,6-bis(3-chlorophenylcarbamylguanidino)hexane diacetate] | 0.078 µg/mL | –
CCCCC(CC)CNC(=N)NC(=N)NCCCCCCNC(=N)NC(=N)NCC(CC)CCCC (centres unmarked) [alexidine, 1,6-bis(2-ethylhexylbiguanidino)hexane] | – | clinical antiplaque effect (dental plaque): clinically effected antiplaque agents; adsorption to gastrointestinal mucosa [1]: adsorbed to the gastrointestinal mucosa; local irritation of the oral mucosa and tongue [2]: produce local irritation of the oral mucosa and tongue; ionization state [3]: almost entirely cationic
N=C(NCCCCCCNC(=N)NC(=O)Nc1cccc(C(F)(F)F)c1)NC(=O)Nc1cccc(C(F)(F)F)c1 [1,6-bis(3-trifluoromethylphenylcarbamylguanidino)hexane dihydrochloride] | 0.312 µg/mL | –
N=C(NCCCCCCNC(=N)NC(=O)Nc1ccccc1Cl)NC(=O)Nc1ccccc1Cl [1,6-bis(2-chlorophenylcarbamylguanidino)hexane diacetate] | 0.312 µg/mL | –
N=C(NC(=O)NCCCCCCNC(=O)NC(=N)Nc1ccc(Cl)cc1)Nc1ccc(Cl)cc1 [1,6-Bis(p-chlorophenylamidinoureido)hexane] | 2.5 µg/mL (≈ 4.93 µM) | –
N=C(NCCCCCCNC(=N)NC(=O)Nc1ccc(Cl)cc1)NC(=O)Nc1ccc(Cl)cc1 [1,6-bis(4-chlorophenylcarbamylguanidino)hexane diacetate] | 0.078 µg/mL | –
N=C(NCCCCCCCNC(=N)NC(=O)Nc1ccc(Cl)cc1)NC(=O)Nc1ccc(Cl)cc1 [1,7-bis(4-chlorophenylcarbamylguanidino)heptane dihydrochloride] | 0.312 µg/mL | –
[H]/N=C(\N/C(=N/[H])NCCCCCCNC(=N)NC(=N)Nc1ccc(Cl)cc1)Nc1ccc(Cl)cc1 [chlorhexidine, 1,6-bis-(p-chlorophenylbiguanidino)hexane] | – | further adsorption from fresh portions of solution [4]: No further adsorption; clinical antiplaque effect (dental plaque): clinically effected antiplaque agents; adsorption to gastrointestinal mucosa [1]: adsorbed to the gastrointestinal mucosa; local irritation of the oral mucosa and tongue [2]: produce local irritation of the oral mucosa and tongue; ionization state [3]: almost entirely cationic
